The target of assay [1] is Opioid receptors; delta & kappa (Homo sapiens) (UniProt P41145+P41143). Put plainly: Selectivity for human delta opioid receptor to human kappa opioid receptor. The assay is classed as protein assay.
For assay [2], the target named is Kappa-type opioid receptor (Homo sapiens, UniProt P41145). Nature of the assay: Displacement of [3H]diprenorphine from kappa opioid receptor expressed in human HEK293 cells. Format: cell-based. On the technique in general: Displacement assays read how much labelled ligand stays bound in the presence of the test substance.
Chain of Kappa-type opioid receptor (P41145 whole entry): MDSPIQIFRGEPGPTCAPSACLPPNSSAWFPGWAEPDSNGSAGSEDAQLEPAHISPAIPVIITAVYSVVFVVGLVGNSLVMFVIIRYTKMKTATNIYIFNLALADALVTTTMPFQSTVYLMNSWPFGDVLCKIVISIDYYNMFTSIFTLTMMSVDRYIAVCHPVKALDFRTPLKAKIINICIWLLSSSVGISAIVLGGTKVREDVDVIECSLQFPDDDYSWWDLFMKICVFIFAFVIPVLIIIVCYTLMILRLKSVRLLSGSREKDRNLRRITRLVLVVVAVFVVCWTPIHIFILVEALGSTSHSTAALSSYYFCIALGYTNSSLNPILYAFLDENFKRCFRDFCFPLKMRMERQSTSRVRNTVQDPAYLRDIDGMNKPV
The target of assay [3] is Mu-type opioid receptor (Cavia porcellus, UniProt P97266). Nature of the assay: Agonist activity at mu opioid receptor in guinea pig ileum longitudinal muscle. Format: functional, tissue-based.
Chain of Mu-type opioid receptor (Cavia porcellus, UniProt P97266) (P97266 whole entry): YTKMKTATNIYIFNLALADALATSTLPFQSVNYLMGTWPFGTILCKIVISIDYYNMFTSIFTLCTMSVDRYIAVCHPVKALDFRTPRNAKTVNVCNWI
Assay [4] concerns the target Delta-type opioid receptor (Homo sapiens, UniProt P41143). Nature of the assay: Displacement of [3H]diprenorphine from delta opioid receptor expressed in human HEK293 cells. Format: cell-based.
Assay [5] concerns the target Mu-type opioid receptor (Homo sapiens, UniProt P35372). Nature of the assay: Displacement of [3H]diprenorphine from mu opioid receptor expressed in human HEK293 cells. The assay is classed as cell-based.
In assay [6] the target is Delta-type opioid receptor (Mus musculus, UniProt P32300). Nature of the assay: Agonist activity at delta opioid receptor in mouse vas deferens. The assay is classed as functional, tissue-based.
Chain of Delta-type opioid receptor (Mus musculus, UniProt P32300) (P32300 whole entry): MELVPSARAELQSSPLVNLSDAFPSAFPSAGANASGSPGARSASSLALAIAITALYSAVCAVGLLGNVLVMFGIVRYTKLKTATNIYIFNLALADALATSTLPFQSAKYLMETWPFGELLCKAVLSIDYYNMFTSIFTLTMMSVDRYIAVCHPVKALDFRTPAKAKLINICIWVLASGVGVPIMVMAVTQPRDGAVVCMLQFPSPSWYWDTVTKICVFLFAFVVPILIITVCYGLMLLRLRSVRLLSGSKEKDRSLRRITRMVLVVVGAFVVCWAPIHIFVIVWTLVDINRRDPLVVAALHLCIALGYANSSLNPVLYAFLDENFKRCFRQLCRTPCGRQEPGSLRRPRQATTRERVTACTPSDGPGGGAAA
The target in assay [7] is Opioid receptors; mu & delta (Homo sapiens) (UniProt P41143+P35372). Nature of the assay: Selectivity for human delta opioid receptor to human mu opioid receptor. The assay is classed as protein assay.
Chain of Opioid receptors; mu & delta (Homo sapiens) (P35372 whole entry, looked up): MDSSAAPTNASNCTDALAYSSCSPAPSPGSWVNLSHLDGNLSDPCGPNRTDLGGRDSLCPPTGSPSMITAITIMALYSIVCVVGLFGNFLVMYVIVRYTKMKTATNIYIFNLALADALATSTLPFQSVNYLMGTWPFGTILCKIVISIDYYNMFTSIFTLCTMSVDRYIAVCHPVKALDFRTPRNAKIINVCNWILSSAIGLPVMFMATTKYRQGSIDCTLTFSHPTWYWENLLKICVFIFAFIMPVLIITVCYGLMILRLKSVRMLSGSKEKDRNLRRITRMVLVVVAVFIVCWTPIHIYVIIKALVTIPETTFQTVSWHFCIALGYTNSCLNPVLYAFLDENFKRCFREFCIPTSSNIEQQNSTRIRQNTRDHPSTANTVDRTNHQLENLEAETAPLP
Chain of Opioid receptors; mu & delta (Homo sapiens) (P41143 whole entry, looked up): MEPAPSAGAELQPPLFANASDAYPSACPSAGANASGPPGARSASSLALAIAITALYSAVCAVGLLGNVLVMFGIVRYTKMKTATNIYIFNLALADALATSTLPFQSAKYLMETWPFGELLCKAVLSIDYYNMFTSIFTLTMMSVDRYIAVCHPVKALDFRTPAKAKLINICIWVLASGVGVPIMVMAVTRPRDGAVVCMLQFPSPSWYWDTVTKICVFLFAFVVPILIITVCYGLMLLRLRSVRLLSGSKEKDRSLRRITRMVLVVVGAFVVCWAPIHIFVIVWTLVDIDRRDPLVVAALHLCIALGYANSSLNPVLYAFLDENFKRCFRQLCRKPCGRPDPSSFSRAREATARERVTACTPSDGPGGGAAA

Chain of Delta-type opioid receptor (Homo sapiens, UniProt P41143) (P41143 whole entry): as the sequence (P41143 whole entry, looked up) above
Chain of Opioid receptors; delta & kappa (Homo sapiens) (P41143 whole entry, looked up): as above
Chain of Opioid receptors; delta & kappa (Homo sapiens) (P41145 whole entry, looked up): as the sequence (P41145 whole entry) above
Chain of Mu-type opioid receptor (Homo sapiens, UniProt P35372) (P35372 whole entry): as the sequence (P35372 whole entry, looked up) above

By Ki is commonly meant the dissociation constant of the complex between target and ligand, obtained from inhibition or displacement. Usually IC50 stands for the concentration that inhibits the measured activity by half. A high value points to weaker potency in that assay. Take `O=Cc1cc2ccc(C(=O)Nc3cccc4c5c([nH]c34)[C@@H]3Oc4c(O)ccc6c4[C@@]34CCN(CC3CC3)[C@H](C6)[C@]4(O)C5)cc2cc1C=O`: the results for the Ratio Ki in assay [1] and in assay [7] were 68 and 64, respectively. The results for the Ki in assay [2], in assay [4] and in assay [5] were 153 nM, 2.25 nM and 144 nM, respectively. Also, the IC50 in assay [3] was found to be 19.5 nM; in assay [6], 0.46 nM.

These data come from ChEMBL document CHEMBL1145404, “o-Naphthalenedicarboxaldehyde derivative of 7'-aminonaltrindole as a selective delta-opioid receptor affinity label” (J Med Chem, 2007).
